Like-named read-outs stand apart in the source and are kept apart here.
How the values were obtained:
[1] = system: A375 (Amelanotic Melanoma); test: Cell viability analysis, skin cancer A375; type: cell-based, human; settings: Homo sapiens, A-375, 72 h
[2] = system: MKN-45 (Gastric Adenocarcinoma); test: Cell viability analysis, gastric cancer MKN-45; type: cell-based, human; settings: Homo sapiens, MKN-45, 72 h
cancer cell lines = test: Cell viability analysis (WST-1) on cancer cell lines; type: cell-based, human; settings: drug 10 μM, 72 hours, WST-1; Table 3
[3] = system: PC3 (p53−) (Prostate Adenocarcinoma); test: Cell viability analysis, prostate cancer PC3; type: cell-based, human; settings: Homo sapiens, 72 h
TOV-21G = test: Cell viability analysis, ovarian cancer TOV-21G; type: cell-based, human; settings: Homo sapiens, TOV21G, 72 h; TOV-21G; repeated experiment; read-out: The results of antibiotic drug inhibiting cancer cell lines (cell viability analysis), TOV-21G
AsPC-1 = test: Cell viability analysis, pancreatic cancer AsPC-1; type: cell-based, human; settings: Homo sapiens, ASPC1, 72 h; AsPC-1; repeated experiment; read-out: The results of antibiotic drug inhibiting cancer cell lines (cell viability analysis), AsPC-1
[4] = system: A549 (Lung Adenocarcinoma); test: Cell viability analysis, lung cancer A549; type: cell-based, human; settings: Homo sapiens, A549, 72 h
[5] = system: HeLa (Cervix Adenocarcinoma); test: Cell viability analysis, cervical cancer HeLa; type: cell-based, human; settings: Homo sapiens, HeLa, 72 h, HeLa
[6] = system: HepG2 (Hepatocellular Carcinoma); test: Cell viability analysis, hepatic cancer HepG2; type: cell-based, human; settings: Homo sapiens, HepG2, 72 h
[7] = system: C-33A (Cervical carcinoma); test: Cell viability analysis, cervical cancer C-33A; type: cell-based, human; settings: Homo sapiens, 72 h; C-33A; repeated experiment; read-out: The results of antibiotic drug inhibiting cancer cell lines (cell viability analysis), C-33A
[8] = system: MDA-MB-231 (Mammary Gland, Adenocarcinoma); test: Cell viability analysis, breast cancer MDA-MB-231; type: cell-based, human; settings: Homo sapiens, MDA-MB-231, 72 h; MDA-MB231; repeated experiment; read-out: The results of antibiotic drug inhibiting cancer cell lines (cell viability analysis), MDA-MB231
[9] = system: LoVo (Colorectal Adenocarcinoma); test: Cell viability analysis, colon cancer LoVo; type: cell-based, human; settings: Homo sapiens, LoVo, 72 h
[10] = system: AGS (Gastric Adenocarcinoma); test: Cell viability analysis, gastric cancer AGS; type: cell-based, human; settings: Homo sapiens, 72 h
[11] = system: HCT116 (p53+) (Colorectal Carcinoma)
T24 = test: Cell viability analysis, bladder cancer T24; type: cell-based, human; settings: Homo sapiens, T-24, 72 h; T24; repeated experiment; read-out: The results of antibiotic drug inhibiting cancer cell lines (cell viability analysis), T24
[12] = system: SAS (Tongue squamous cell carcinoma); test: Cell viability analysis, tongue cancer SAS; type: cell-based, human; settings: Homo sapiens, 72 h; SAS; repeated experiment; read-out: The results of antibiotic drug inhibiting cancer cell lines (cell viability analysis), SAS
NIH: OVCAR-3 = test: Cell viability analysis, ovarian cancer NIH: OVCAR-3; type: cell-based, human; settings: Homo sapiens, 72 h; NIH-OVCAR-3; repeated experiment; read-out: The results of antibiotic drug inhibiting cancer cell lines (cell viability analysis), NIH-OVCAR-3
[13] = system: TSGH-8301 (Urinary Bladder Carcinoma); test: Cell viability analysis, bladder cancer TSGH-8301; type: cell-based, human; settings: Homo sapiens, 72 h
[14] = system: HL-60 (Acute Promyelocytic Leukemia); test: Cell viability analysis, leukemia HL-60; type: cell-based, human; settings: Homo sapiens, HL-60, 72 h, drug 10 μM, 72 hours, WST-1, OD450 nm; read-out: cell viability (survival rate), HL-60
[15] = system: MCF7 (Mammary Gland, Adenocarcinoma); test: Cell viability analysis, breast cancer MCF7; type: cell-based, human; settings: Homo sapiens, MCF7, 72 h
[16] = system: 786-O (Renal adenocarcinoma); test: Cell viability analysis, renal cancer 786-O; type: cell-based, human; settings: Homo sapiens, 786-0, 72 h; 786-O; repeated experiment; read-out: The results of antibiotic drug inhibiting cancer cell lines (cell viability analysis), 786-O
[17] = system: HI650 (Lung Adenocarcinoma); test: Cell viability analysis, lung cancer HI650; type: cell-based, human; settings: Homo sapiens, NCI-H1650, 72 h
[18] = system: BCC (basal cell carcinoma); test: Cell viability analysis, skin cancer BCC; type: cell-based, human; settings: Homo sapiens, 72 h; BCC; repeated experiment; read-out: The results of antibiotic drug inhibiting cancer cell lines (cell viability analysis), BCC
[19] = system: Hep3B (hepatocellular carcinoma); test: Cell viability analysis, hepatic cancer Hep3B; type: cell-based, human; settings: Homo sapiens, 72 h; Hep3B; repeated experiment; read-out: The results of antibiotic drug inhibiting cancer cell lines (cell viability analysis), Hep3B

`CC(C)CN(C[C@@H](O)[C@H](Cc1ccccc1)NC(=O)O[C@H]1CCOC1)S(=O)(=O)c1ccc(N)cc1` [Amprenavir (Agenerase), Amprenavir] showed a viability at 10 µM ([1]; A375, repeated experiment, read-out: The results of antibiotic drug inhibiting cancer cell lines (cell viability analysis), A375) of 88.1%, a viability at 10 µM ([1]; drug 10 μM, 72 hours, WST-1, OD450 nm, read-out: cell viability (survival rate), A375) of 77.6% and a viability at 10 µM ([2]; MKN-45, repeated experiment, read-out: The results of antibiotic drug inhibiting cancer cell lines (cell viability analysis), MKN-45) of 103%. The viability at 10 µM ([2]; drug 10 μM, 72 hours, WST-1, OD450 nm, read-out: cell viability (survival rate), MKN-45) was 52.1%, the “inhibition effect on different cancer cell lines” value (cancer cell lines) was “significant inhibition effect” and the viability at 10 µM ([3]; PC-3, repeated experiment, read-out: The results of antibiotic drug inhibiting cancer cell lines (cell viability analysis), PC-3) was 87.4%. It also gave a viability at 10 µM ([3]; drug 10 μM, 72 hours, WST-1, OD450 nm, read-out: cell viability (survival rate), PC3) of 80.4%, a viability at 10 µM (TOV-21G) of 97% and a viability at 10 µM (AsPC-1) of 90.4%. It also gave a viability at 10 µM ([4]; A549, repeated experiment, read-out: The results of antibiotic drug inhibiting cancer cell lines (cell viability analysis), A549) of 79.9%, a viability at 10 µM ([4]; drug 10 μM, 72 hours, WST-1, OD450 nm, read-out: cell viability (survival rate), A549) of 53.7% and a viability at 10 µM ([5]; repeated experiment, read-out: The results of antibiotic drug inhibiting cancer cell lines (cell viability analysis), HeLa) of 67.9%. It also gave a viability at 10 µM ([5]; drug 10 μM, 72 hours, WST-1, OD450 nm, read-out: cell viability (survival rate), HeLa) of 67.5%, a viability at 10 µM ([6]; HepG2, repeated experiment, read-out: The results of antibiotic drug inhibiting cancer cell lines (cell viability analysis), HepG2) of 94.5% and a viability at 10 µM ([6]; drug 10 μM, 72 hours, WST-1, OD450 nm, read-out: cell viability (survival rate), HepG2) of 90.9%. For the same compound, the viability at 10 µM [7] was 109%, the viability at 10 µM [8] was 83.5% and the viability at 10 µM ([9]; read-out: The results of antibiotic drug inhibiting cancer cell lines (cell viability analysis), LoVo, repeated experiment) was 95.5%. For the same compound, the viability at 10 µM ([9]; read-out: cell viability (survival rate), LoVo, drug 10 μM, 72 hours, WST-1, OD450 nm) was 77.4%, the viability at 10 µM ([10]; AGS, repeated experiment, read-out: The results of antibiotic drug inhibiting cancer cell lines (cell viability analysis), AGS) was 98.6% and the viability at 10 µM ([10]; drug 10 μM, 72 hours, WST-1, OD450 nm, read-out: cell viability (survival rate), AGS) was 58.8%. It also gave a viability [11] of 94.5%, a viability at 10 µM (T24) of 90.5% and a viability at 10 µM [12] of 83.3%. The viability at 10 µM (NIH: OVCAR-3) was 106%, the viability at 10 µM ([13]; TSGH-8301, repeated experiment, read-out: The results of antibiotic drug inhibiting cancer cell lines (cell viability analysis), TSGH-8301) was 96.1% and the viability at 10 µM ([13]; drug 10 μM, 72 hours, WST-1, OD450 nm, read-out: cell viability (survival rate), TSGH) was 57%. The viability at 10 µM [14] was 111%, the viability at 10 µM ([15]; MCF-7, repeated experiment, read-out: The results of antibiotic drug inhibiting cancer cell lines (cell viability analysis), MCF-7) was 68.3% and the viability at 10 µM ([15]; drug 10 μM, 72 hours, WST-1, OD450 nm, read-out: cell viability (survival rate), MCF7) was 37%. It also gave a viability at 10 µM [16] of 96.7%, a viability at 10 µM ([17]; H1650, repeated experiment, read-out: The results of antibiotic drug inhibiting cancer cell lines (cell viability analysis), H1650) of 88.1% and a viability at 10 µM ([17]; drug 10 μM, 72 hours, WST-1, OD450 nm, read-out: cell viability (survival rate), H1650) of 69.5%. The viability at 10 µM [18] was 74.5% and the viability at 10 µM [19] was 95.2%.

Reference: patent publication US10105357B2, “Indication of antibiotic drugs for preparation of cancer inhibition pharmaceutical composition” (LAUNX BIOMEDICAL CO., LTD., priority 2014, dated 2018)
